Measurements taken from patent US20050238740A1, “Use of mastic and its components for the control of microbial infections” (priority 2002, published 2005).
Values after ≈ are worked out from the molar mass of the structure shown. Values joined by “and” are separate entries in the source; they are usually repeats but may differ in a detail not shown here. Equal values may be shown once. Read-outs that look alike come from different tables or passages of the source.

Legend:
Assay in all cases: MTT cytotoxic/cytostatic activity, 48 hours exposure
Assay type in all cases: cell-based
[1] = system: human epidermoid carcinoma A431; conditions: for IC50: Homo sapiens, A-431
Method: (§1) Three extracts derived from Pistacia lentiscus var. Chia were tested for their cytotoxic/cytostatic activity against three established cancer cell lines, i.e human mammary adenocarcinoma MCF-7, human colon adenocarcinoma HT-29, and human epidermoid carcinoma A431. A modification of the MTT method (Denizot and Lang, 1986, J Immunol Meth 89, 271) was used for the assessment of cytotoxicity. Briefly, exponentially growing cells were exposed to varying concentrations of the test compounds (or control medium) for 48 hours. Then, the medium was replaced with MTT [3-(4,5-dimethylthiazol-2-yl)-2,5-diphenyltetrazolium bromide] for a further 4 -hour incubation. Finally, the MTT-formazan was solubilized in isopropanol and the optical density was measured at a wavelength of 550 nm and a reference wavelength of 690 nm. A representative example of the semi-log inhibition curves obtained after exposure of A43 1 cells to the three Pistacia lentiscus extracts is illustrated in FIG. 2.
The inhibition curves were used to determine the IC50 of each extract, i.e. the concentration that produced a 50% reduction of the absorbance relative to the absorbance of the control culture. The average IC50s of each extract for each cell line, after at least three independent trials, are presented in the following table (5-fluorouracil a classical chemotherapeutic agent, was included as a positive control in the case of A431 epidermoid carcinoma cells):
We used the methodology of MTT (see Example 6), using A431 cells. The average IC50s of each compound, after at least three independent trials, are presented in the following table (the data of the previous report regarding A431 cells are included in the table for reasons of comparison):
The neutral extract of the essential oil and two of the isolated ingredients, i.e. isomasticadienolic acid, and oleanonic acid were tested for […] activity using the methodology of MTT (Example 7) and three established human cancer cell lines.

[2] = system: human colon adenocarcinoma HT-29; conditions: two independent trials, essential oil dissolved in absolute ethanol (Table 11)
Method: as §1
The inhibition curves were used to determine the IC50 of each extract, i.e. the concentration that produced a 50% reduction of the absorbance relative to the absorbance of the control culture. […]

[3] = system: human lung carcinoma A549; conditions: two independent trials, essential oil dissolved in absolute ethanol (Table 11)
[4] = A431, at least three independent trials (Table 10), read-out: IC50, inhibition of A431 cancer cell proliferation

With `O=c1[nH]cc(F)c(=O)[nH]1` [5-fluorouracil, reference compound] the IC50 [1, 4] was 2.25 µg/mL and 17.3 µM and the IC50 ([1]; Epidermoid carcinoma A431, 48 hours, at least three independent trials (Table 9), read-out: IC50, inhibition of cancer cell proliferation) was 2.25 µg/mL (≈ 17.3 µM).

With `C/C(=C/CC[C@H](C)[C@@H]1CC[C@]2(C)C3=C(CC[C@@]12C)[C@@]1(C)CC[C@H](O)C(C)(C)[C@@H]1CC3)C(=O)O` [Isomasticadienolic, isomasticadienolic acid] the “average IC50” value [2] was 95 (±5) μg/mL, the “average IC50” value [3] was 95 (±5) μg/mL and the “average IC50” value ([1]; Epidermoid carcinoma A431, two independent trials, essential oil dissolved in absolute ethanol (Table 11)) was 25 (±5) μg/mL.

`CC1(C)C=C2[C@H]3CC[C@@H]4[C@@]5(C)CCC(=O)C(C)(C)[C@@H]5CC[C@@]4(C)[C@]3(C)CC[C@@]2(C(=O)O)CC1` [moronic, moronic acid] was tested, and the IC50 [1, 4] was 47.7 µg/mL and 105 µM.

With `CC1(C)CC[C@]2(C(=O)O)CC[C@]3(C)C(=CC[C@@H]4[C@@]5(C)CCC(=O)C(C)(C)[C@@H]5CC[C@]43C)[C@@H]2C1` [oleanonic, oleanonic acid] the IC50 ([2]; Homo sapiens) was 105 µg/mL (≈ 231 µM), the IC50 ([3]; Homo sapiens) was 110 µg/mL (≈ 242 µM) and the IC50 [1, 4] was 17.5 µg/mL and 38.3 µM. It also gave an IC50 ([1]; Epidermoid carcinoma A431, two independent trials, essential oil dissolved in absolute ethanol (Table 11), read-out: average IC50) of 45 µg/mL (≈ 99 µM).
